Results taken from patent publication US11214540B2, “Compositions for treating neurodegenerative diseases” (COGNITION THERAPEUTICS, INC., priority 2017, dated 2022).
Where two headings read alike, the source gives them in different places.

Key:
[1] = biological target: Sigma-1 receptors on Jurkat cell membranes (Homo sapiens (Human), UniProt Q99720); assay: Competitive Radioligand Binding Assay 1, Sigma-1 binding ([3H](+)pentazocine displacement); conditions: sigma-1 receptor affinity; read-out: S1 Ki
Method: Certain compounds were tested for interaction with several receptors by blocking the binding or action of their agonists or antagonists. Some compounds were tested to see whether they interact directly with known cellular receptor or signaling proteins. Compounds can be tested for the ability to displace binding of known agonists or antagonists of a given human receptor that was overexpressed in cell lines or isolated from tissue. Compounds can also be tested for the ability to block downstream signaling induced by agonists or antagonists of a given human receptor. Compounds can be tested for action at 100 known receptors, and it is desirable that specific activity will occur at only a small subset of CNS-relevant receptors.
For Sigma-1 binding, various concentrations of test compounds from 100 μM to 1 nM were used to displace 8 nM [3H](+)pentazocine from endogenous receptors on Jurkat cell membranes (Ganapathy M E et al. 1991, J Pharmacol. Exp. Ther. 289:251-260). 10 μM Haloperidol was used to define non-specific binding. […] (Bowen W D, et al. 1993, Mol. Neuropharmcol 3:117-126). 10 μM Haloperidol was used to define non-specific binding. Reactions were terminated by rapid filtration through Whatman GF/C filters using a Brandel 12R cell harvester followed by two washes with ice-cold buffer. Radioactivity on the dried filter discs was measured using a liquid scintillation analyzer (Tri-Carb 2900TR; PerkinElmer Life and Analytical Sciences). The displacement curves were plotted and the Ki values of the test compounds for the receptor subtypes were determined using GraphPad Prism (GraphPad Software Inc., San Diego, Calif.). The percentage specific binding was determined by dividing the difference between total bound (disintegrations per minute) and nonspecific bound (disintegrations per minute) by the total bound (disintegrations per minute). […]

[2] = tested on: Abeta oligomer-induced membrane trafficking deficits in primary hippocampal neurons; assay: Membrane Trafficking/Exocytosis (MTT) assay, Abeta oligomer effect on neurons; type: cell-based, rat; conditions: membrane trafficking, read-out: EC50 Abeta;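 further: compound potency for inhibiting the Abeta oligomer effect on exocytosis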
Summary of the method: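 Rat E18 hippocampal neurons cultured 3 weeks received compound (100 uM to 0.001 nM), then vehicle or Abeta 1-42 oligomers (3 μM total Abeta), for 1-24 h at 37 °C. MTT was added for 1 h, and formazan vesicle exocytosis was quantified by automated imaging with DAPI toxicity check. Tukey-Kramer comparisons were made with N=4.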

[3] = biological target: Sigma-2 receptors on membranes from rat cerebral cortex (Rattus norvegicus (Rat), UniProt Q5U3Y7); assay: Competitive Radioligand Binding Assay 1, Sigma-2 binding ([3H]DTG displacement with (+)pentazocine mask); conditions: sigma-2 receptor affinity; read-out: S2 Ki
Method: Using the same protocol, some compounds for which membrane trafficking data are given in Table 1 were tested for recognition of sigma-2 receptor. Certain compounds preferentially bind to the sigma-2 receptor.
For Sigma-1 binding, various concentrations of test compounds from 100 μM to 1 nM were used to displace 8 nM [3H](+)pentazocine from endogenous receptors on Jurkat cell membranes (Ganapathy M E et al. 1991, J Pharmacol. Exp. Ther. 289:251-260). 10 μM Haloperidol was used to define non-specific binding. […] (Bowen W D, et al. 1993, Mol. Neuropharmcol 3:117-126). 10 μM Haloperidol was used to define non-specific binding. Reactions were terminated by rapid filtration through Whatman GF/C filters using a Brandel 12R cell harvester followed by two washes with ice-cold buffer. Radioactivity on the dried filter discs was measured using a liquid scintillation analyzer (Tri-Carb 2900TR; PerkinElmer Life and Analytical Sciences). The displacement curves were plotted and the Ki values of the test compounds for the receptor subtypes were determined using GraphPad Prism (GraphPad Software Inc., San Diego, Calif.). The percentage specific binding was determined by dividing the difference between total bound (disintegrations per minute) and nonspecific bound (disintegrations per minute) by the total bound (disintegrations per minute).
Affinities for Sigma-1 and Sigma-2 receptors are typically obtained from published studies using cerebral tissue homogenates with [3H](+)pentazocine to measure displacement from Sigma-1 receptors and [3H] 1,3-Di-(2-tolyl)guanidine in the presence of 300 nM (+)pentazocine to measure displacement from Sigma-2 receptors.

[4] = log P; type: physicochemical; conditions: for logP: octanol/water
Summary of the method: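 Ratio of un-ionized compound concentrations between octanol and water, with aqueous pH set so the un-ionized form predominates. Value given as the log of the octanol/water ratio.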

[5] = biological target: potassium channel hERG (Homo sapiens (Human), UniProt Q12809); assay: In vitro testing for hERG inhibition; type: biochemical; conditions: in vitro toxicity potassium channel hERG
Method: In vitro testing for hERG inhibition was performed in a standard assay (See: Haverkamp W, Breithardt G, Carnm A J, Janse M J, Rosen M R, Antzelevitch C, Escande D, Franz M, Malik M, Moss A and Shah R. (2000) Eur Heat J 21 (15); 1216-31).

[6] = Mouse liver microsome (MLM) stability; type: in vitro ADME; conditions: microsomal stability in mouse liver microsomes (MLM)
Method: A first pharmacokinetic study was performed in microsomes of mice mouse liver microsomes, MLM).
Microsomal stability experiments and plasma stability experiments were performed to determine metabolic and hepatic stability of candidate compounds.

[7] = Rattus norvegicus, Hippocampal neuron

Sigma-2 receptors on membranes from rat cerebral cortex, sequence (Q5U3Y7 whole entry): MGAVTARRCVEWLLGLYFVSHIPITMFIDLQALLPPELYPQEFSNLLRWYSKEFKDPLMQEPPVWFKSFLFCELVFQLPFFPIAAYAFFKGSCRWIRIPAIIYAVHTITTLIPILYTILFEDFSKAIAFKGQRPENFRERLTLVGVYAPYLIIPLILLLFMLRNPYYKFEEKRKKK
Sigma-1 receptors on Jurkat cell membranes, sequence (Q99720 whole entry): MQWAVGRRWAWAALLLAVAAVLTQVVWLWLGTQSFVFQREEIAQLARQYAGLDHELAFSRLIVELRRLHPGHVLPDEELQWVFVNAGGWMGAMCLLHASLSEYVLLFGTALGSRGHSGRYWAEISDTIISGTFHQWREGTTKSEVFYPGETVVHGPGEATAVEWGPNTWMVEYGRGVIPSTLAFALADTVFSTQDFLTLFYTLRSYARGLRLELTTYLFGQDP
potassium channel hERG, sequence (Q12809 whole entry): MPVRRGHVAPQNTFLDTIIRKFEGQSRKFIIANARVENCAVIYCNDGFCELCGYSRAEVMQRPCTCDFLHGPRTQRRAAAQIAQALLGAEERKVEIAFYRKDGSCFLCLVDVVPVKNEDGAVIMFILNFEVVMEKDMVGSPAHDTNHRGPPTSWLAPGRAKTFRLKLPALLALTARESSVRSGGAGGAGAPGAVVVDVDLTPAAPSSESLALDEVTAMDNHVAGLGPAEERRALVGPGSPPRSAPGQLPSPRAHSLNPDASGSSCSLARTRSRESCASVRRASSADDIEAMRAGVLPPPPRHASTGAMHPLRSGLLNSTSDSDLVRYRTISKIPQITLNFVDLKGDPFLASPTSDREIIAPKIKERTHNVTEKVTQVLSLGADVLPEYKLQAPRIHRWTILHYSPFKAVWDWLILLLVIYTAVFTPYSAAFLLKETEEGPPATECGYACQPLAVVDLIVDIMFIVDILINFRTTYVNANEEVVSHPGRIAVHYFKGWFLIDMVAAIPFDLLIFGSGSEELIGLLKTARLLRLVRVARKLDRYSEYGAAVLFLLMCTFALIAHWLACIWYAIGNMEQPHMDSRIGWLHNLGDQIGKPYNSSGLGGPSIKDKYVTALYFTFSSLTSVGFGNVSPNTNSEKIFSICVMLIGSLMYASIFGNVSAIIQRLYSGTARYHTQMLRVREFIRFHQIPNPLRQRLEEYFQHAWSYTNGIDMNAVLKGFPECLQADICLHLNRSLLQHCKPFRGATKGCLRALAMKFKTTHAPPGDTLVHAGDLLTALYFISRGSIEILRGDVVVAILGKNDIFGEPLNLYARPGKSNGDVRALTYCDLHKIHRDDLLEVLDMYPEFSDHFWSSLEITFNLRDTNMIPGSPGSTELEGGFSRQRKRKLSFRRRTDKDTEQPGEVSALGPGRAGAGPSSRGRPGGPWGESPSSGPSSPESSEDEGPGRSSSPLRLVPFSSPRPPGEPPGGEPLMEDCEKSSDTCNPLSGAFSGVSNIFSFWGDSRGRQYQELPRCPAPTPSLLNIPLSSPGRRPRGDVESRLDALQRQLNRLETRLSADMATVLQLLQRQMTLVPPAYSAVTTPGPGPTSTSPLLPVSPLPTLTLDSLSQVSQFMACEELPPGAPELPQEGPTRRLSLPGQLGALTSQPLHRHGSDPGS

SMILES: CC(CC(C)(C)c1ccc(C(F)(F)F)cc1)N1CCC(CCO)CC1 (centres unmarked) [Compound 2]
- Ki [1]: 0.9 nM
- EC50 [2]: > 15000 nM
- Ki [3]: 0.6 nM
- log P [4]: 4.67
- IC50 [5]: 9200 nM

SMILES: COC1CCN(C(C)CC(C)(C)c2ccc(C(F)(F)F)cc2)CC1 (centres unmarked) [Compound 6]
- Ki [1]: 0.3 nM
- EC50 [2]: > 15000 nM
- Ki [3]: 1 nM
- log P [4]: 4.49
- IC50 [5]: 750 nM

SMILES: CC(C)(CCN1CCC(O)CC1)c1ccc(Cl)cc1 [Compound 8]
- Ki [1]: 0.4 nM
- EC50 [2]: 250 nM
- Ki [3]: 1.6 nM
- log P [4]: 3.16
- IC50 [5]: 14000 nM

SMILES: COC1CCN(CCC(C)(C)c2ccc(Cl)cc2)CC1 [Compound 10]
- Ki [1]: 0.7 nM
- EC50 [2]: 1260 nM
- Ki [3]: 2.1 nM
- log P [4]: 3.8
- IC50 [5]: 11000 nM

SMILES: CC(CC(C)(C)c1ccc(C(F)(F)F)cc1)N1CCC(O)CC1 (centres unmarked) [Compound 13]
- Ki [1]: 1 nM
- Ki [3]: 2.9 nM
- log P [4]: 3.85
- IC50 [5]: 2500 nM

SMILES: CC(CC(C)(C)c1ccc(Cl)cc1)N1CCC(CO)CC1 (centres unmarked) [Compound 16]
- Ki [1]: 0.8 nM
- Ki [3]: 4.5 nM
- log P [4]: 4.03
- IC50 [5]: 840 nM

SMILES: CC(C)=CC(COc1ccc(F)cc1)N1CCC(O)CC1 (centres unmarked) [Compound 18]
- Ki [1]: 2.6 nM
- EC50 [2]: 250 nM
- Ki [3]: 5.6 nM
- log P [4]: 2.72
- IC50 [5]: 29000 nM

SMILES: CC(CC(C)(C)c1ccc(F)cc1)N1CCC(CO)CC1 (centres unmarked) [Compound 19]
- Ki [1]: 2.2 nM
- EC50 [2]: < 250 nM
- Ki [3]: 6 nM
- log P [4]: 3.57
- IC50 [5]: 37000 nM

SMILES: CC(CC(C)(C)c1ccc(Cl)cc1)N1CCC(O)CC1 (centres unmarked) [Compound 20]
- Ki [1]: 1 nM
- Ki [3]: 6.1 nM
- log P [4]: 3.57
- IC50 [5]: 1700 nM

SMILES: CC(CC(C)(C)c1ccc(Cl)cc1)N1CCC(C)(O)CC1 (centres unmarked) [Compound 22]
- Ki [1]: 1 nM
- Ki [3]: 7 nM
- log P [4]: 3.85
- IC50 [5]: 1700 nM

SMILES: CC(CC(C)(C)c1ccc(F)cc1)N1CCC(O)CC1 (centres unmarked) [Compound 25]
- Ki [1]: 2.3 nM
- Ki [3]: 10 nM
- log P [4]: 3.11
- IC50 [5]: 4000 nM

SMILES: COC1CCN(C(C=C(C)C)CC(C)(C)c2ccc(C(F)(F)F)cc2)CC1 (centres unmarked) [Compound 39]
- Ki [1]: 25 nM
- EC50 [2]: 600 nM
- Ki [3]: 43 nM
- log P [4]: 5.49
- IC50 [5]: 8200 nM

SMILES: COCCOCCC1CCN(C(C=C(C)C)CC(C)(C)c2ccc(C(F)(F)F)cc2)CC1 (centres unmarked) [Compound 40]
- Ki [1]: 170 nM
- EC50 [2]: 830 nM
- Ki [3]: 44 nM
- log P [4]: 6.28
- IC50 [5]: 9600 nM

SMILES: CC(C)=CC(CC(C)(C)c1ccc(C(F)(F)F)cc1)N1CCC(OC(C)C)CC1 (centres unmarked) [Compound 44]
- Ki [1]: 260 nM
- EC50 [2]: 1400 nM
- Ki [3]: 79 nM
- log P [4]: 6.27
- IC50 [5]: 9200 nM

SMILES: CC(C)=CC(CC(C)(C)c1ccc(F)cc1)N1CCN(C(=O)OC(C)(C)C)CC1 (centres unmarked) [Compound 47]
- Ki [1]: 1910 nM
- Ki [3]: 90 nM
- log P [4]: 5.55
- IC50 [5]: 14000 nM

SMILES: CCOC1CCN(C(C=C(C)C)CC(C)(C)c2ccc(F)cc2)CC1 (centres unmarked) [Compound 59]
- Ki [1]: 600 nM
- EC50 [2]: 250 nM
- Ki [3]: 160 nM
- log P [4]: 5.12
- IC50 [5]: 73000 nM

SMILES: CC(C)=CC(CCc1ccc(C)cc1)N1CCC(C2CCOCC2)CC1 (centres unmarked) [Compound 64]
- Ki [1]: 535 nM
- Ki [3]: 268 nM
- log P [4]: 3.52
- IC50 [5]: 11000 nM

SMILES: CC(C)=CC(CCc1ccc(F)cc1)N1CCC(C2CCOCC2)CC1 (centres unmarked) [Compound 65]
- Ki [1]: 1200 nM
- Ki [3]: 270 nM
- log P [4]: 4.13
- IC50 [5]: 2300 nM

SMILES: CC(=O)N1CCN(C(C=C(C)C)CC(C)(C)c2ccc(C(F)(F)F)cc2)CC1 (centres unmarked) [Compound 71]
- Ki [1]: 62 nM
- Ki [3]: 340 nM
- log P [4]: 4.61
- IC50 [5]: 17000 nM

SMILES: CC(=O)N1CCN(C(C=C(C)C)CC(C)(C)c2ccc(Cl)cc2)CC1 (centres unmarked) [Compound 75]
- Ki [1]: 690 nM
- EC50 [2]: 250 nM
- Ki [3]: 690 nM
- log P [4]: 4.33
- IC50 [5]: 15000 nM

SMILES: CC(=O)N1CCN(C(C=C(C)C)CC(C)(C)c2ccc(F)cc2)CC1 (centres unmarked) [Compound 81]
- Ki [1]: 160 nM
- Ki [3]: 2500 nM
- log P [4]: 3.87
- IC50 [5]: 32000 nM

SMILES: CC(C)=C[C@@H](CC(C)(C)c1ccc(C(F)(F)F)cc1)N1CCC[C@@H]1CO [Compound 83]
- Ki [1]: 1000 nM
- EC50 [2]: 3800 nM
- Ki [3]: 1000 nM
- log P [4]: 5.31
- IC50 [5]: 14000 nM

SMILES: COC[C@H]1CCCN1C(C)CC(C)(C)c1ccc(Cl)cc1 (some centres unmarked) [Compound 84]
- Ki [1]: 1000 nM
- EC50 [2]: 250 nM
- Ki [3]: 1000 nM
- log P [4]: 4.67
- IC50 [5]: 3900 nM

SMILES: CC(C)=CC(CCc1ccc(C)cc1)N1CCOCC1 (centres unmarked) [Compound 93]
- MLM T1/2 [6]: 3.4 min
- EC50 [2]: 20000 nM
- log P [4]: 4.36

SMILES: CC(C)=CC(CC(C)(C)c1ccc(C)cc1)N(C)CC1CCOCC1 (centres unmarked) [Compound 112]
- MLM T1/2 [6]: 4.9 min
- log P [4]: 5.59

SMILES: CC(C)=CC(CCc1ccc(C)cc1)N1CCC(C2CCOCC2)CC1 (centres unmarked) [Compound 114]
- MLM T1/2 [6]: 1.8 min
- log P [4]: 5.63

SMILES: CC1(O)CCN(CCC(C)(C)c2ccc(C(F)(F)F)cc2)CC1 [Example 14]
- Ki [1]: 1.9 nM
- EC50 [2, 7]: 3700 nM
- Ki [3]: 3 nM
- logP [4]: 3.71
- IC50 [5]: 18000 nM

SMILES: CC(C)(CCN1CCC(O)CC1)c1ccc(C(F)(F)F)cc1 [Example 17]
- Ki [1]: 1.3 nM
- EC50 [2, 7]: 2240 nM
- Ki [3]: 5.1 nM
- logP [4]: 3.43
- IC50 [5]: 11000 nM
